US12345641B2, “Fluorescence quenching immunoassay” (IDEXX Laboratories, Inc., priority 2020, dated 2025)

Tests used:
[1] = system: α-Cholic Acid antibody; experiment: Fluorescence quenching of CA-Fl with anti-cholic acid antibody in PBS (Example 41); assay type: binding
Procedure: A working solution of CA-Fl in PBS (100 nM) was prepared. The working solution was then combined with various equivalents of α-Cholic Acid antibody (1:1, v/v) (commercially available from Fitzgerald Industries of the Netherlands). The fluorescence was measured as a function of the ratio of antibody (Ab) to CA-Fl. The results are depicted in FIG. 33. […] The higher the ratio of antibody to CA-Fl tracer, the greater the amount of quenching.

[2] = system: anti-SDMA antibody; experiment: SDMA dose response with SDMA tracer/SDMA antibody solution (Example 34); assay type: binding; conditions: SDMA 0 to 100 μg/dL added to SDMA-DFF, SDMA-DCF or SDMA-Fl tracer/antibody solution
Procedure: Solutions of various SDMA tracers (SDMA-Fl, SDMA-DFF, and SDMA-DCF) in PBS (with 0.1% Tween) were prepared at a concentrations 400 nM. Solutions of anti-SDMA antibody or anti-SDMA antibody conjugated to BHQ10 (4 eq.) in PBS were prepared at concentrations of 400 and 800 nM, respectively.
SDMA standard solutions were prepared by serially diluting SDMA in PBS (with 0.1% Tween) to provide a final SDMA concentration of 100, 50, 25, 12,5, 6.26, 0 μg/dL.
50 μl of each SDMA standard solution was added to the well of a 96-well UV transparent plate. 50 μl of the SDMA tracer/SDMA antibody solution was then added to each well, the resulting solution mixed well by shaking, and incubated at room temperature for 30 min.

Row | Structure (SMILES) | fluorescence quenching on complex formation with α-Cholic Acid antibody [1] | fluorescence intensity as a function of SDMA concentration [2]
1 | C[C@H](CCC(=O)NCc1c(O)ccc2c(-c3ccccc3C(=O)O)c3ccc(=O)cc-3oc12)[C@H]1CC[C@H]2[C@@H]3[C@H](O)C[C@@H]4C[C@H](O)CC[C@]4(C)[C@H]3C[C@H](O)[C@]12C [CA-Fl, Cholic Acid-Fluorescein Conjugate] | quenched | –
2 | C/N=C(\NC)NCCC[C@H](N)C(=O)O [SDMA, symmetrical dimethylarginine] | – | a dose response is observed
